Test results as given in publication PMC7673538 (PLoS Biology, 2020).
Where “and” joins values, the source holds several entries; their conditions need not be identical. Identical values can stand only once. Like-named read-outs stand apart in the source and are kept apart here.

Key:
CV-B3 [1] = experiment: microbe, parasite or virus in culture; assay type: cell-based, coxsackievirus B3; settings: Enterovirus B, CVB3, BGM
in vitro = settings: human
PV-1 = experiment: microbe, parasite or virus in culture; assay type: cell-based, poliovirus 1; settings: for EC50: Enterovirus C
CV-B3 [2] = experiment: microbe, parasite or virus in culture; assay type: cell-based, coxsackievirus B3; settings: for EC50: Enterovirus B
[3] = test system: representative EVs and RVs; assay type: cell-based
CV-A24 (strain Joseph) = assay type: cell-based, coxsackievirus A24
[4] = test system: all representative viruses; assay type: cell-based
[5] = CVB3, HeLa R19, read-out: CV-B3 EC50 Average
[6] = CVB3, HeLa R19, read-out: CV-B3 Exp 1 EC50
[7] = CVB3, HeLa R19, read-out: CV-B3 Exp2 EC50
[8] = CVB3, HeLa R19, read-out: EC50 Exp1
[9] = CVB3, HeLa R19, read-out: EC50 HelaR19 Average
[10] = CVB3, HeLa R19, read-out: Exp 1 EC50 HelaR19
[11] = CVB3, HeLa R19, read-out: Exp 2 EC50 HelaR19
[12] = CVB3 / genotype 2c, HeLa R19, read-out: EC50 CV-B3 WT

## O=C(c1ccco1)N(Cc1ccc(F)cc1)c1ccccc1 [Compound 19b, N-(4-Fluorobenzyl)-N-phenylfuran-2-carboxamide]
CV-B3 [1]; read-out: EC50 BGM Average
  EC50: 140 nM
CV-B3 [1]; read-out: Exp 1 EC50 BGM
  EC50: 180 nM
CV-B3 [1]; read-out: Exp 2 EC50 BGM
  EC50: 90 nM
In vitro; CC50
  CC50: > 100000 nM
In vitro; CC50 Hap1 Average
  CC50: > 100000 nM
In vitro; Exp 1 CC50 Hap1
  CC50: > 100000 nM
In vitro; Exp 2 CC50 Hap1
  CC50: > 100000 nM
PV-1; HeLa R19, read-out: EC50 Exp1
  EC50: 8500 nM
PV-1; HeLa R19, read-out: EC50 Exp2
  EC50: 9650 nM
PV-1; HeLa R19, read-out: EC50 PV-1
  EC50: 9080 ± 540 nM
CV-B3 [2]
  cross-resistance of 19d-resistant CV-B3 virus pools (in words): cross-resistant
  increase or decrease of antiviral activity against CV-B3: less than 3 fold
CV-B3 [2]; [5]
  EC50: 830 nM
CV-B3 [2]; [6]
  EC50: 730 nM
CV-B3 [2]; [7]
  EC50: 930 nM
CV-B3 [2]; [8]
  EC50: 220 nM
CV-B3 [2]; [9]
  EC50: 680 nM
CV-B3 [2]; [10]
  EC50: 460 nM
CV-B3 [2]; [11]
  EC50: 890 nM
CV-B3 [2]; [12]
  EC50: 290 ± 50 nM
[3]
  inhibition of contemporary/clinical isolates of EV-A71, CV-A24v and EV-D68 (in words): inhibited all clinical isolates of EV-A71, CV-A24v, and EV-D68 tested
  spectrum of antiviral activity (in words): inhibited all representative EVs and RVs

## COc1ccc(N(Cc2ccc(F)cc2)C(=O)c2ccco2)cc1 [Compound 1, N-(4-fluorobenzyl)-N-(4-methoxyphenyl)furan-2-carboxamide]
CV-B3 [1]; read-out: EC50 BGM Average
  EC50: 1660 nM
CV-B3 [1]; read-out: Exp 1 EC50 BGM
  EC50: 1430 nM
CV-B3 [1]; read-out: Exp 2 EC50 BGM
  EC50: 1890 nM
In vitro; CC50 Hap1 Average
  CC50: 45600 nM
In vitro; Exp 1 CC50 Hap1
  CC50: 45100 nM
In vitro; Exp 2 CC50 Hap1
  CC50: 46100 nM
PV-1; Concentration 0.0046 µM
  Figure 7 dose-response raw data, PV-1 (triplicate values): 10.497 and 8.759 and 8.625
PV-1; Concentration 0.0137 µM
  Figure 7 dose-response raw data, PV-1 (triplicate values): 10.497 and 8.759 and 8.625
PV-1; Concentration 0.0412 µM
  Figure 7 dose-response raw data, PV-1 (triplicate values): 10.497 and 11.7005 and 9.1598
PV-1; Concentration 0.1235 µM
  Figure 7 dose-response raw data, PV-1 (triplicate values): 10.7644 and 8.357 and 9.1598
PV-1; Concentration 0.3704 µM
  Figure 7 dose-response raw data, PV-1 (triplicate values): 13.4388 and 8.357 and 9.294
PV-1; Concentration 1.1111 µM
  Figure 7 dose-response raw data, PV-1 (triplicate values): 13.4388 and 8.357 and 9.294
PV-1; Concentration 3.3333 µM
  Figure 7 dose-response raw data, PV-1 (triplicate values): 10.497 and 11.7005 and 9.1598
PV-1; Concentration 11.1111 µM
  Figure 7 dose-response raw data, PV-1 (triplicate values): 10.7644 and 8.357 and 9.1598
PV-1; Concentration 33.3333 µM
  Figure 7 dose-response raw data, PV-1 (triplicate values): 13.4388 and 8.357 and 9.294
PV-1; Concentration 100 µM
  Figure 7 dose-response raw data, PV-1 (triplicate values): 9.294 and 9.1598
PV-1; HeLa R19, read-out: EC50 PV-1
  EC50: > 30000 nM
PV-1; HeLa R19, read-out: EC50 PV-1 Average
  EC50: > 30000 nM
PV-1; HeLa R19, read-out: EC50 PV-1 Experiement 3
  EC50: > 30000 nM
PV-1; HeLa R19, read-out: EC50 PV-1 Experiment 1
  EC50: > 30000 nM
PV-1; HeLa R19, read-out: EC50 PV-1 Experiment 2
  EC50: > 30000 nM
CV-A24 (strain Joseph); compound concentration 1 µM
  virus titer, TCID50/ml (Figure 2A): 100000 TCID50/ml and 169824 TCID50/ml and 162341 TCID50/ml
CV-B3 [2]
  antiviral activity against CV-B3 (in words): inhibited
CV-B3 [2]; Concentration 0.001 µM
  Figure 7 dose-response raw data, CV-B3 (triplicate values): 8.4087 and 12.9113 and 13.3731
CV-B3 [2]; Concentration 0.0046 µM
  Figure 7 dose-response raw data, CV-B3 (triplicate values): 8.524 and 14.1813 and 13.8349
CV-B3 [2]; Concentration 0.0137 µM
  Figure 7 dose-response raw data, CV-B3 (triplicate values): 8.178 and 10.6023 and 11.4104
CV-B3 [2]; Concentration 0.0412 µM
  Figure 7 dose-response raw data, CV-B3 (triplicate values): 8.755 and 10.1405 and 13.8349
CV-B3 [2]; Concentration 0.1235 µM
  Figure 7 dose-response raw data, CV-B3 (triplicate values): 8.6396 and 9.794 and 10.7177
CV-B3 [2]; Concentration 0.3704 µM
  Figure 7 dose-response raw data, CV-B3 (triplicate values): 31.7298 and 16.0285 and 26.5345
CV-B3 [2]; Concentration 1.1111 µM
  Figure 7 dose-response raw data, CV-B3 (triplicate values): 69.1798 and 64.4511 and 60.4699
CV-B3 [2]; Concentration 3.3333 µM
  Figure 7 dose-response raw data, CV-B3 (triplicate values): 108.671 and 85.22 and 102.264
CV-B3 [2]; Concentration 10 µM
  Figure 7 dose-response raw data, CV-B3 (triplicate values): 111.619 and 82.0162 and 97.2661
CV-B3 [2]; CVB3, HeLa R19
  EC50: 1920 ± 40 nM
CV-B3 [2]; [5]
  EC50: 1920 nM
CV-B3 [2]; [6]
  EC50: 1870 nM
CV-B3 [2]; [7]
  EC50: 1960 nM
CV-B3 [2]; CVB3, HeLa R19, read-out: EC50 CV-B3
  EC50: 1710 ± 70 nM
CV-B3 [2]; CVB3, HeLa R19, read-out: EC50 CVB3 Experiement 3
  EC50: 1780 nM
CV-B3 [2]; CVB3, HeLa R19, read-out: EC50 CVB3 Experiment 1
  EC50: 1720 nM
CV-B3 [2]; CVB3, HeLa R19, read-out: EC50 CVB3 Experiment 2
  EC50: 1620 nM
CV-B3 [2]; [9]
  EC50: 1760 nM
CV-B3 [2]; [10]
  EC50: 1650 nM
CV-B3 [2]; [11]
  EC50: 1870 nM
[3]
  inhibition of contemporary/clinical isolates of EV-A71, CV-A24v and EV-D68 (in words): only inhibited the contemporary strains of EV-D68

## O=C(c1ccco1)N(Cc1ccc(C(F)(F)F)cc1)c1ccccc1 [Compound 19d, N-phenyl-N-(4-(trifluoromethyl)benzyl)furan-2-carboxamide]
CV-B3 [1]; read-out: EC50 BGM Average
  EC50: 380 nM
CV-B3 [1]; read-out: Exp 1 EC50 BGM
  EC50: 440 nM
CV-B3 [1]; read-out: Exp 2 EC50 BGM
  EC50: 320 nM
[4]
  inhibition in single-cycle viral replication assay (in words): inhibited all representative viruses
In vitro; CC50 Hap1 Average
  CC50: 97800 nM
In vitro; Exp 1 CC50 Hap1
  CC50: 97400 nM
In vitro; Exp 2 CC50 Hap1
  CC50: 98100 nM
PV-1; HeLa R19, read-out: EC50 Exp1
  EC50: 21000 nM
PV-1; HeLa R19, read-out: EC50 Exp2
  EC50: 22100 nM
PV-1; HeLa R19, read-out: EC50 PV-1
  EC50: 21500 ± 540 nM
CV-A24 (strain Joseph); compound concentration 10 µM
  virus titer, TCID50/ml (Figure 2A): 316.228 TCID50/ml
CV-A24 (strain Joseph); compound concentration 30 µM
  virus titer, TCID50/ml (Figure 2A): 316.228 TCID50/ml
CV-A24 (strain Joseph); compound concentration 100 µM
  virus titer, TCID50/ml (Figure 2A): 316.228 TCID50/ml
CV-A24 (strain Joseph); compound concentration 150 µM
  virus titer, TCID50/ml (Figure 2A): 316.228 TCID50/ml
CV-B3 [2]
  effect of the substitution on antiviral activity against CV-B3 (in words): only marginally affected antiviral activity
CV-B3 [2]; CVB3, HeLa R19, […], read-out: EC50 Exp1
  EC50: 7980 nM
CV-B3 [2]; [5]
  EC50: 790 nM
CV-B3 [2]; [6]
  EC50: 730 nM
CV-B3 [2]; [7]
  EC50: 850 nM
CV-B3 [2]; [8]
  EC50: 1040 nM
CV-B3 [2]; [9]
  EC50: 770 nM
CV-B3 [2]; [10]
  EC50: 910 nM
CV-B3 [2]; [11]
  EC50: 630 nM
CV-B3 [2]; [12]
  EC50: 1260 ± 150 nM
HeLa R19 cells
  cytotoxic effect in parallel to single-cycle assay (in words): none of them showed any cytotoxic effect
HeLa R19 cells; compound concentration 0.01 µM
  Cytotoxicity values, % compared to DMSO (Figure 2B): 101.341%
[3]
  inhibition of contemporary/clinical isolates of EV-A71, CV-A24v and EV-D68 (in words): inhibited all clinical isolates of EV-A71, CV-A24v, and EV-D68 tested
  spectrum of antiviral activity (in words): inhibited all representative EVs and RVs
